In article PMC9541495, “Understanding the interaction of 14‐3‐3 proteins with hDMX and hDM2: a structural and biophysical study” (The Febs Journal, 2022):
Where a SMILES comes first, the peptide text is derived from it. [ ]: non-standard residue; d: D form. The star is where a group is joined. 5FAM = O=C1OC2(c3ccc(O)cc3Oc3cc(O)ccc32)c2ccc(C(=O)*)cc21; pS = N[C@@H](COP(=O)(O)O)C(=O)O; Ahx = NCCCCCC(=O)O

What was measured:
Format in all cases: binding
14‐3‐3 τ = molecular target: T1, 14‐3‐3 τ (Homo sapiens, UniProt P27348); experiment: Fluorescence anisotropy direct titration, 14‐3‐3τ; settings: FA direct titration; FAM‐Ahx tracer peptide 50 nM; HEPES/NaCl/Tween 20/BSA pH 7.4; 1:1 fit; n = 3; read-out: K d, 14‐3‐3 τ
T1 construct: full‐length proteins were concentrated by centrifugation, rebuffered in HEPES buffer; made in house; host or cells: E. coli BL21(DE3)
T1 sequence (P27348 1-245): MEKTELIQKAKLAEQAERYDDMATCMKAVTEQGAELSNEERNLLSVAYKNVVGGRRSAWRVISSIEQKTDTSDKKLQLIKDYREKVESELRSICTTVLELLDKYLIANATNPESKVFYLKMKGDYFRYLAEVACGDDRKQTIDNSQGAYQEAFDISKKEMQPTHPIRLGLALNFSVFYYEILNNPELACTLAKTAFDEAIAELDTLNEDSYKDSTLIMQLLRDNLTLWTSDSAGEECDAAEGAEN
Excerpt: (§1) 14‐3‐3 proteins were titrated against a constant concentration of the tracer resulting in an increase of anisotropy upon engaging 14‐3‐3 proteins (Fig. 2A–C for 14‐3‐3 binding hDMX sequences and Figs S4–S6, for 14‐3‐3 binding hDM2 sequences, non‐binding sequence, and unphosphorylated controls). A noteworthy feature of the data is that different maximum anisotropy levels were observed between hDMX or hDM2 peptides and 14‐3‐3 isoforms, indicating different diffusion properties of the fluorophore when bound to the different 14‐3‐3 isoforms. […]
(§2) […]
(§3) All assays were performed in 384 well plates (each experiment was run in triplicates) and data were collected by Perkin Elmer EnVision […] plate reader with excitation at 480 nm (30 nm bandwidth), polarised dichroic mirror at 505 nm and emission at 535 nm (40 nm bandwidth, S and P polarised). […] A ½ fold dilution series was performed in the titration, with plates read after 30 min, 4 h and 20–24 h. […] Total intensity I and anisotropy r were calculated using Equations 1 and 2 for each well. […]

14‐3‐3 ε = molecular target: T2, 14‐3‐3 ε (Homo sapiens, UniProt P62258); experiment: Fluorescence anisotropy direct titration, 14‐3‐3ε; settings: FA direct titration; FAM‐Ahx tracer peptide 50 nM; HEPES/NaCl/Tween 20/BSA pH 7.4; 1:1 fit; n = 3; read-out: K d, 14‐3‐3 ε
T2 construct: full‐length proteins were concentrated by centrifugation, rebuffered in HEPES buffer; made in house; host or cells: E. coli BL21(DE3)
T2 sequence (P62258 1-255): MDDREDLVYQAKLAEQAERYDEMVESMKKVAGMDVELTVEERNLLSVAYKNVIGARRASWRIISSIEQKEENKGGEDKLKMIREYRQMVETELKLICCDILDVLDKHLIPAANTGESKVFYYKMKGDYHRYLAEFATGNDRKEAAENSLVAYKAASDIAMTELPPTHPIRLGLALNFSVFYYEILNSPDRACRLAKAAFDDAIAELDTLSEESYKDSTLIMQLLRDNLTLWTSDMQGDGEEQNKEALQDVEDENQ
Excerpt: as §1, §2, §3

14‐3‐3 σ = molecular target: T3, 14‐3‐3 σ (Homo sapiens, UniProt P31947); experiment: Fluorescence anisotropy direct titration, 14‐3‐3σ; settings: FA direct titration; FAM‐Ahx tracer peptide 50 nM; HEPES/NaCl/Tween 20/BSA pH 7.4; 1:1 fit; n = 3; read-out: K d, 14‐3‐3 σ
T3 construct: full‐length proteins were concentrated by centrifugation, rebuffered in HEPES buffer; made in house; host or cells: E. coli BL21(DE3)
T3 sequence (P31947 1-248): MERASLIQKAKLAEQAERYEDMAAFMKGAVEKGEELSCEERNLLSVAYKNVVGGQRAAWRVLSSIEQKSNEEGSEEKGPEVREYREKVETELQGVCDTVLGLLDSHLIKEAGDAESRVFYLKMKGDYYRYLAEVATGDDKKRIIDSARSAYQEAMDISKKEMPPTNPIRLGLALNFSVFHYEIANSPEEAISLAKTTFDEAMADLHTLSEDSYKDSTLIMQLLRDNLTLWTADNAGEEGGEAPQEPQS
Excerpt: as §1, §2, §3

- Kd (14‐3‐3 τ): > 250 µM
- Kd (14‐3‐3 ε): > 260 µM
- Kd (14‐3‐3 σ): > 170 µM
Structure (SMILES): CC[C@H](C)[C@H](NC(=O)[C@H](CO)NC(=O)[C@H](CC(=O)O)NC(=O)[C@H](COP(=O)(O)O)NC(=O)[C@H](CCCCN)NC(=O)[C@H](Cc1c[nH]cn1)NC(=O)[C@H](CCCNC(=N)N)NC(=O)[C@H](CCCCN)NC(=O)[C@H](CCCNC(=N)N)NC(=O)[C@H](CCC(N)=O)NC(=O)CCCCCNC(=O)c1ccc2c(c1)C(=O)OC21c2ccc(O)cc2Oc2cc(O)ccc21)C(=O)N[C@@H](CO)C(=O)N[C@@H](CC(C)C)C(=O)N[C@@H](CO)C(N)=O [hDM2_180‐192 ^pSer186] ({5FAM-Ahx}-QRKRHK[pS]DSISLS-NH2)
